The source of these data is article PMC7376443 (Bioorganic & medicinal chemistry letters, 2020).

For orientation: IC50 means the concentration needed to halve the response being measured. Low values mean greater potency in that assay, high ones weaker potency in that assay.

Assay type in all cases: biochemical
For assay [1], the target named is T1, ChTS-DHFR (thymidylate synthase-dihydrofolate reductase), TS activity (Cryptosporidium hominis, UniProt A0A0S4TER9). The experiment in a line: radiolabeled CH2H4F to H2F turnover by HPLC, single concentration […].
The target in assay [2] is human TS (thymidylate synthase, hTS) (Homo sapiens, UniProt P04818). Briefly: TS activity assay, enzyme preincubated with compound without dUMP, […].
human TS (thymidylate synthase, hTS), sequence (P04818 2-313): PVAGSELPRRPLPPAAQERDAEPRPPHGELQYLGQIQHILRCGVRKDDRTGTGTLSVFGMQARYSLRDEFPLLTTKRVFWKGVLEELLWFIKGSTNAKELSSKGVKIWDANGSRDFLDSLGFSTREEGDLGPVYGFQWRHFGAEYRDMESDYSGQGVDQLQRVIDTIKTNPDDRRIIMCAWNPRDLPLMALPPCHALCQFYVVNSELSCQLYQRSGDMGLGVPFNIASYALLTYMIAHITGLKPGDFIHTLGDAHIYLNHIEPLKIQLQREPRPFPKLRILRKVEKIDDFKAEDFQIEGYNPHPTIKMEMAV
For assay [3], the target named is T1, ChTS-DHFR (thymidylate synthase-dihydrofolate reductase), TS activity.

Consider CD 11057 [compound 7], for which the “% Inhibition of ChTS Activity at 500 μM” value in assay [1] is reported as 46.0 ± 0.8.
HTS 00950 [compound 6]: in assay [2], the “% inhibition at 500 uM” value is recorded as ~ 50. For the same substance, the IC50 in assay [3] amounted to 172 ± 11 µM.
Take HTS 00967 [compound 10]: in assay [1], the “% Inhibition of ChTS Activity at 500 μM” value was found to be 55 ± 1.
Turning to HTS 03850 [compound 2], in assay [1], the “% Inhibition of ChTS Activity at 500 μM” value amounted to 76 ± 9.
